Values of other authors, collected in patent US10934504B2, “Laundry treatment compositions comprising perfume and silica microparticles” (Conopco, Inc., priority 2016, dated 2021).

Conditions: values taken from the Good Scents website

Structure (SMILES)	logKow
CC(=O)OCc1ccccc1 [Benzyl acetate]	2.0
CCCCCCCCCC(C)C=O (stereo not drawn) [C12 Aldehyde MNA]	4.9
C=CC(C)CCCC(C)(C)O (stereo not drawn) [Dihydromyrcenol]	2.9
CC(=O)OC(C)(C)Cc1ccccc1 [Dimethyl benzyl carbinyl acetate]	2.7
CC(C=O)Cc1ccc(C(C)(C)C)cc1 (stereo not drawn) [Lilial]	3.6
C=C(C)[C@H]1CC=C(C)CC1 [Limonene]	3.4
CCCC(C)C(=O)OCC (stereo not drawn) [Manzanate]	2.4
c1ccc(CCOC2CCCCC2)cc1 [Phenafleur]	3.8
CC(=O)c1cc2c(cc1C)C(C)(C)C(C)CC2(C)C (stereo not drawn) [Tonalid]	4.8
CC(=O)OC1CC2CC1C1CC=CC21 (stereo not drawn) [Verdyl acetate]	2.2
CCCCCCOC(=O)c1ccccc1O [n-Hexyl salicylate]	5.7
CC(=O)/C=C/C1=C(C)CCCC1(C)C [β-Ionone]	2.9
